Reference: publication PMC10683482, “Offsetting Low-Affinity Carbohydrate Binding with Covalency to Engage Sugar-Specific Proteins for Tumor-Immune Proximity Induction” (ACS Central Science, 2023)

Test system: Hek-PSMA cells
Experiment: ADCC reporter assay with polyclonal human IgG, column step (Figure 3)
Assay type: cell-based
Conditions: 50 μM compound with 230 μM human IgG 72 h, column washing step
Procedure: Next, we investigated the potential ability of rhamnose cARMs and noncovalent ARM analogs to induce immune proximity with cancer targets. […] These compounds were then evaluated for their capacity to activate immune cells against PSMA cancer targets (Hek-PSMA cells) in an ADCC reporter assay (Figure 3). […] The formation of this complex may be prevented by the alkyl linker, which could adopt a fixed conformation via hydrophobic collapse.
Figure 3 ADCC reporter assay to evaluate cARM vs ARM immune function using polyclonal anti-rhamnose antibodies. Top: chemical structures of compounds evaluated. Bottom: ADCC assay. Each cARM/ARM (50 μM) was incubated with polyclonal human IgG (230 μM) for 72 h and passed through a Millipore centrifugation column. Antibody solutions were then resuspended to experimental concentrations and added to preplated Hek-P cells (50,000 cells). To this cell solution, luciferase-expressing jurkat cells were added and incubated for 24 h. Activation of jurkat was determined as a measure of luciferase expression with a BioGlo assay kit.
General Notes and Materials
ELISA - General notes and Materials […]
Plate absorbance was measured at 450 nm using a Tecan Spark Plate Reader. […]
Pre-cast Tris-Glycine Gels (4-20%) were purchased from Fisher Scientific (XP04202BOX). […] Gel fluorescence was imaged using a GE Typhoon imager (Cy2 channel for fluorescein, Cy5 channel for A647). […]

SMILES | immune activation (jurkat luciferase)
C[C@@H]1O[C@@H](OCc2cn(CCc3cn(C(=O)OCCNC(=O)CCCCCNC(=O)CCCCCNC(=O)CCCCCNC(=O)NCCCC[C@H](NC(=O)N[C@@H](CCC(=O)O)C(=O)O)C(=O)O)cn3)nn2)[C@H](O)[C@H](O)[C@H]1O [compound 10] | successfully mediated specific immune activation
C[C@@H]1O[C@@H](OCc2cn(CCCNC(=O)OCCNC(=O)CCCCCNC(=O)CCCCCNC(=O)CCCCCNC(=O)NCCCC[C@H](NC(=O)N[C@@H](CCC(=O)O)C(=O)O)C(=O)O)nn2)[C@H](O)[C@H](O)[C@H]1O [compound 11] | failed to induce immune activation
